The values below come from patent US7261880B2, “Methods of treating Syndrome X with aliphatic polyamines” (priority 2001, dated 2007).

For test [1], the system named is patients with primary hypercholesterolemia. Put plainly: Simvastatin Trial (6-week), colesevelam in combination with simvastatin. In kind it is in vivo, human. As to conditions: 6 weeks.
The test system is the same in test [2]. The note with it: 4 weeks.
The test system is the same in test [3]. As to conditions: Lovastatin 10 mg/day, 4 weeks.

Like-named read-outs stand apart in the source and are kept apart here. Marks after values point to notes of the source that are not given here.

For the compound `CCC(C)(C)C(=O)O[C@H]1C[C@@H](C)C=C2C=C[C@H](C)[C@H](CC[C@@H]3C[C@@H](O)CC(=O)O3)[C@H]21` [Simvastatin, simvastatin], in test [1] (Simvastatin 10 mg/day), the “Apo B mean percentage change” value is −20* %, the “HDL-C median percentage change” value is recorded as “+3* %”, the “LDL-C mean percentage change” value is listed as −26* % and the “TG median percentage change” value is −17* %. The “Total-C mean percentage change” value in test [1] (Simvastatin 10 mg/day) was −19* %. Further, in test [1] (Simvastatin 20 mg/day), the “Apo B mean percentage change” value was −26* %, the “HDL-C median percentage change” value is recorded as “+7* %”, the “LDL-C mean percentage change” value is reported as −34* % and the “TG median percentage change” value was −12* %. In test [1] (Simvastatin 20 mg/day), the “Total-C mean percentage change” value is listed as −23* %.
As for `CC(C)c1c(C(=O)Nc2ccccc2)c(-c2ccccc2)c(-c2ccc(F)cc2)n1CC[C@@H](O)C[C@@H](O)CC(=O)O` [Atorvastatin, atorvastatin], in test [2] (Atorvastatin 10 mg/day), the “Apo B mean percentage change” value is −32* %, the “HDL-C median percentage change” value is given as “+8%”, the “LDL-C mean percentage change” value was −38* % and the “TG median percentage change” value is listed as −24* %. Also, the “Total-C mean percentage change” value in test [2] (Atorvastatin 10 mg/day) was −27* %. Also, in test [2] (Atorvastatin 80 mg/day), the “Apo B mean percentage change” value is on record as −46* %, the “HDL-C median percentage change” value is recorded as “+6%”, the “LDL-C mean percentage change” value is reported as −53* % and the “TG median percentage change” value is given as −33* %. Besides, the “Total-C mean percentage change” value in test [2] (Atorvastatin 80 mg/day) is −39* %.
`CC[C@H](C)C(=O)O[C@H]1C[C@@H](C)C=C2C=C[C@H](C)[C@H](CC[C@@H]3C[C@@H](O)CC(=O)O3)[C@H]21` [Lovastatin, lovastatin]: in test [3], the “Apo B mean percentage change” value is −16%, the “HDL-C median percentage change” value is “+5%”, the “LDL-C mean percentage change” value was −22* % and the “TG median percentage change” value came out at 0%. The “Total-C mean percentage change” value in test [3] is −14* %.
